In BindingDB's records for patent US20240277683 (Ctxt, 2024):

Assays:
[1] = biological target: Histone acetyltransferase KAT5 (Homo sapiens, UniProt Q92993); experiment: Acetyltransferase Biochemical Assay
Protocol: (§1) The reactions were performed in assay buffer (100 mM Tris-HCl, pH7.8, 15 mM NaCl, 1 mM EDTA, 0.01% Tween-20, 1 mM Dithiothreitol and 0.01% m/v chicken egg white albumin). […] 11-point dilution series of the test compounds were prepared in DMSO; a volume of 100 nL was transferred using a pin tool into assay plates containing substrates, […] control reactions were included on the same plates and received the same amount of DMSO as the compound treated wells. After adding all reagents, the plates were sealed with adhesive seals and incubated for 90 min at room temperature. An additional 4 uL of assay buffer containing AlphaScreen Protein A acceptor beads […] was then added.

[2] = biological target: Histone acetyltransferase KAT7 (Homo sapiens, UniProt O95251); experiment: Acetyltransferase Biochemical Assay
Chain of Histone acetyltransferase KAT7 (O95251 whole entry): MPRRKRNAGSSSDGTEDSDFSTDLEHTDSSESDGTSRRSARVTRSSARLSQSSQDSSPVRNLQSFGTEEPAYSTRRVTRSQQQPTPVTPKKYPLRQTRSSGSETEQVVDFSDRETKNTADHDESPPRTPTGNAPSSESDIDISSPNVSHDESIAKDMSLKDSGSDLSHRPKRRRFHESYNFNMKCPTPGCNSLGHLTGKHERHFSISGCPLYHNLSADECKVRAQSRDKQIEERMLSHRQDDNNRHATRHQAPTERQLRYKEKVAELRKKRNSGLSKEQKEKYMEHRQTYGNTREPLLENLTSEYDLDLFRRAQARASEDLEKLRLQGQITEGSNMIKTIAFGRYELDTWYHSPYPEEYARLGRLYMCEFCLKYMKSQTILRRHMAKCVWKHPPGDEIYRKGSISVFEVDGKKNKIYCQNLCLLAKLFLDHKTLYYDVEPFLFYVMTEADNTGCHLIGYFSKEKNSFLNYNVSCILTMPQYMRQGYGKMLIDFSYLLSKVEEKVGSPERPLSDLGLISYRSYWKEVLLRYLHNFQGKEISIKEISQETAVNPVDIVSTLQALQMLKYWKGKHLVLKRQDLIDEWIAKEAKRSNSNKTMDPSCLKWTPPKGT
Protocol: as §1

Chain of Histone acetyltransferase KAT5 (Q92993 whole entry): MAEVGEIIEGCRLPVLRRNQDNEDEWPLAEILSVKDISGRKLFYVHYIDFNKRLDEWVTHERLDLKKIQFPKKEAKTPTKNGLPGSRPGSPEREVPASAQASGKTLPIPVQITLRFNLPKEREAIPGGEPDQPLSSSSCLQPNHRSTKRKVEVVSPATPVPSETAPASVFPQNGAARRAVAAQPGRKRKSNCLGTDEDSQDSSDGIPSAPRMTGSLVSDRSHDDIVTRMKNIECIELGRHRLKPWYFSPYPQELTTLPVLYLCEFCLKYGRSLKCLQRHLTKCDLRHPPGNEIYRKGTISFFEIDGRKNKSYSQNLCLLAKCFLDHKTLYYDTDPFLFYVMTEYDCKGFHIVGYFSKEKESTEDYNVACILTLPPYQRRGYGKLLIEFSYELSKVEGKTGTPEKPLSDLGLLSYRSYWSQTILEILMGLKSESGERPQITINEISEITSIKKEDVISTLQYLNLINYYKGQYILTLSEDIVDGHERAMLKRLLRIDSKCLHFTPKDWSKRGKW

Compound | IC50 [1] [µM] | IC50 [2] [µM]
O=S(=O)(Nc1cc(-c2ccccc2)on1)C1CC1 [US20240277683, Example 29] | > 125 | > 125
O=S(=O)(Nc1cc(-c2ccccc2)on1)c1ccc2c(c1)CCCC2 [US20240277683, Example 76] | > 125 | –
COc1ccccc1-c1nnc(NS(=O)(=O)C2CCNCC2)s1 [US20240277683, Example 129] | > 125 | –
